Consider 12 molecules from patent publication US20260022142A1, “MACROCYCLIC IMMUNOMODULATORS” (Bristol-Myers Squibb Company, priority 2022, published 2026).

pIC50: −log10 of the molar value. Bridge positions count the residues as written; N and C are the ends. Square brackets hold non-standard residues; d marks the D form. Peptide text beside a SMILES is read from it. * marks the point of attachment. Phe(4-COOH) = N[C@@H](Cc1ccc(C(=O)O)cc1)C(=O)O; Bip = N[C@@H](Cc1ccc(-c2ccccc2)cc1)C(=O)O; Phe(3-Me) = Cc1cccc(C[C@H](N)C(=O)O)c1; Val(3-OH) = CC(C)(O)[C@H](N)C(=O)O; 4Pal = N[C@@H](Cc1ccncc1)C(=O)O; Cha = N[C@@H](CC1CCCCC1)C(=O)O; Cit = NC(=O)NCCC[C@H](N)C(=O)O; Carboxymethyl = O=C(O)C*; Orn = NCCC[C@H](N)C(=O)O; Aun = NCCCCCCCCCCC(=O)O; Dab = NCC[C@H](N)C(=O)O; Dap = NC[C@H](N)C(=O)O; AEEA = NCCOCCOCC(=O)O

T1 sequence (Q15116 25-288): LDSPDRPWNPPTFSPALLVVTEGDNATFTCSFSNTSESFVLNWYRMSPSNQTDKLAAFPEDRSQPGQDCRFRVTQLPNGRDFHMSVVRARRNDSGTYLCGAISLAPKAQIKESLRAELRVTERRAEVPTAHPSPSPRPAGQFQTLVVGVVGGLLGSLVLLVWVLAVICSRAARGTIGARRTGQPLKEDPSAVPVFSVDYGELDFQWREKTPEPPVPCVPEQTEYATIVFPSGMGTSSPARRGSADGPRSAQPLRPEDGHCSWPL

This test concerns the target T1, PD-1/PD-L1 interaction (PE-labeled human PD-L1-Ig binding to Jurkat cell line over-expressing human PD-1) (Homo sapiens, UniProt Q15116).
T1 construct: expressed in transfected cells; host or cells: Jurkat
In words: Jurkat-PD-1 Cell Binding High-Content Screening Assay (CBA). It is filed as cell-based. The following applies: Jurkat cell line over-expressing human PD-1; PE-labeled PD-L1-Ig 20 nM final; read-out: Jurkat hPD1-PDL1 IC50. Summed up: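 Jurkat-hPD-1 cells, DMEM/10% FCS; cpd 2 h 37° C; PE-PD-L1-Ig 20 nM final, 1 h; 4% PFA fix + Hoechst 33342, 3× dPBS wash; high-content imaging read-out.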
Regarding `Cc1cccc(C[C@@H]2NC(=O)[C@H](CC(=O)O)NC(=O)[C@H](Cc3ccc(OCC(=O)O)cc3)NC(=O)[C@H](CN)NC(=O)CSC[C@@H](C(=O)N[C@@H](CO)C(=O)N[C@@H](CO)C(=O)NCCCCCCCCCCC(=O)O)NC(=O)[C@H]([C@@H](C)O)NC(=O)[C@H](C(C)C)NC(=O)[C@H](CC3CCCCC3)NC(=O)[C@H](CCN)NC(=O)[C@@H](CC(C)C)NC(=O)[C@H](CCCN)NC(=O)[C@H](CCCNC(N)=O)NC(=O)[C@H](Cc3ccc(-c4ccccc4)cc3)NC(=O)[C@H](C(C)C)NC2=O)c1` [Compound 2852] ({CH2CO}-[Dap]Y(Carboxymethyl)D[Phe(3-Me)]V[Bip][Cit][Orn][dL][Dab][Cha]VTCSS[Aun]-OH; thioether N-14), the pIC50 was 7.68. Consider `Cc1cccc(C[C@@H]2NC(=O)[C@H](CC(=O)O)NC(=O)[C@H](Cc3ccc(OCC(=O)O)cc3)NC(=O)[C@H](CN)NC(=O)CSC[C@@H](C(=O)N[C@@H](CCN)C(=O)N[C@@H](CO)C(=O)N[C@@H](CO)C(=O)NCCCCCCCCCCC(=O)O)NC(=O)[C@H]([C@@H](C)O)NC(=O)[C@H](C(C)C)NC(=O)[C@H](CC3CCCCC3)NC(=O)[C@H](CCN)NC(=O)[C@@H](CC(C)C)NC(=O)[C@H](CCCN)NC(=O)[C@H](CCCNC(N)=O)NC(=O)[C@H](Cc3ccc(-c4ccccc4)cc3)NC(=O)[C@H](C(C)C)NC2=O)c1` [Compound 2853] ({CH2CO}-[Dap]Y(Carboxymethyl)D[Phe(3-Me)]V[Bip][Cit][Orn][dL][Dab][Cha]VTC[Dab]SS[Aun]-OH; thioether N-14), for which the pIC50 is 7.18. In the case of `Cc1cccc(C[C@@H]2NC(=O)[C@H](CC(=O)O)NC(=O)[C@H](Cc3ccc(OCC(=O)O)cc3)NC(=O)[C@H](CCCNC(=N)N)NC(=O)CSC[C@@H](C(=O)N[C@@H](CCN)C(=O)NCCCCCCCCCCC(=O)O)NC(=O)[C@H]([C@@H](C)O)NC(=O)[C@H](C(C)C)NC(=O)[C@H](CC3CCCCC3)NC(=O)[C@H](CCN)NC(=O)[C@@H](CC(C)C)NC(=O)[C@H](CCCN)NC(=O)[C@H](CCC(N)=O)NC(=O)[C@H](Cc3ccc(-c4ccccc4)cc3)NC(=O)[C@H](Cc3ccc(OCC(=O)O)cc3)NC2=O)c1` [Compound 2854] ({CH2CO}-RY(Carboxymethyl)D[Phe(3-Me)]Y(Carboxymethyl)[Bip]Q[Orn][dL][Dab][Cha]VTC[Dab][Aun]-OH; thioether N-14) it was 7.77; in that of `Cc1cccc(C[C@@H]2NC(=O)[C@H](CC(=O)O)NC(=O)[C@H](Cc3ccc(OCC(=O)O)cc3)NC(=O)[C@H](CCCNC(=N)N)NC(=O)CSC[C@@H](C(=O)N[C@@H](CCCN)C(=O)NCCCCCCCCCCC(=O)O)NC(=O)[C@H](CCC(N)=O)NC(=O)[C@H](C(C)C)NC(=O)[C@H](CC3CCCCC3)NC(=O)[C@H](CCN)NC(=O)[C@@H](CC(C)C)NC(=O)[C@H](CCN)NC(=O)[C@H](Cc3ccc(OCC(=O)O)cc3)NC(=O)[C@H](Cc3ccc(-c4ccccc4)cc3)NC(=O)[C@H](Cc3ccc(OCC(=O)O)cc3)NC2=O)c1` [Compound 2855] ({CH2CO}-RY(Carboxymethyl)D[Phe(3-Me)]Y(Carboxymethyl)[Bip]Y(Carboxymethyl)[Dab][dL][Dab][Cha]VQC[Orn][Aun]-OH; thioether N-14), 7.71.

Turning to `Cc1cccc(C[C@@H]2NC(=O)[C@H](CC(=O)O)NC(=O)[C@H](Cc3ccc(OCC(=O)O)cc3)NC(=O)[C@H](CN)NC(=O)CSC[C@@H](C(=O)N[C@@H](CCCN)C(=O)NCCCCCCCCCCC(=O)O)NC(=O)[C@H](CCC(=O)O)NC(=O)[C@H](C(C)C)NC(=O)[C@H](CC3CCCCC3)NC(=O)[C@H](CCN)NC(=O)[C@@H](CC(C)C)NC(=O)[C@H](CCN)NC(=O)[C@H](Cc3ccc(OCC(=O)O)cc3)NC(=O)[C@H](Cc3ccc(-c4ccccc4)cc3)NC(=O)[C@H](Cc3ccc(OCC(=O)O)cc3)NC2=O)c1` [Compound 2856] ({CH2CO}-[Dap]Y(Carboxymethyl)D[Phe(3-Me)]Y(Carboxymethyl)[Bip]Y(Carboxymethyl)[Dab][dL][Dab][Cha]VEC[Orn][Aun]-OH; thioether N-14), the pIC50 was 7.71. In the case of `Cc1cccc(C[C@@H]2NC(=O)[C@H](CC(=O)O)NC(=O)[C@H](Cc3ccc(OCC(=O)O)cc3)NC(=O)[C@H](CN)NC(=O)CSC[C@@H](C(=O)N[C@@H](CCCN)C(=O)NCCCCCCCCCCC(=O)O)NC(=O)[C@H](CCC(N)=O)NC(=O)[C@H](C(C)C)NC(=O)[C@H](CC3CCCCC3)NC(=O)[C@H](CCN)NC(=O)[C@@H](CC(C)C)NC(=O)[C@H](CCN)NC(=O)[C@H](Cc3ccc(OCC(=O)O)cc3)NC(=O)[C@H](Cc3ccc(-c4ccccc4)cc3)NC(=O)[C@H](Cc3ccc(OCC(=O)O)cc3)NC2=O)c1` [Compound 2857] ({CH2CO}-[Dap]Y(Carboxymethyl)D[Phe(3-Me)]Y(Carboxymethyl)[Bip]Y(Carboxymethyl)[Dab][dL][Dab][Cha]VQC[Orn][Aun]-OH; thioether N-14) it was 7.46; in that of `Cc1cccc(C[C@@H]2NC(=O)[C@H](CC(=O)O)NC(=O)[C@H](Cc3ccc(OCC(=O)O)cc3)NC(=O)[C@H](CN)NC(=O)CSC[C@@H](C(=O)N[C@@H](CCN)C(=O)NCCCCCCCCCCC(=O)O)NC(=O)[C@H](CCCN)NC(=O)[C@H](C(C)C)NC(=O)[C@H](CC3CCCCC3)NC(=O)[C@H](CCN)NC(=O)[C@@H](CC(C)C)NC(=O)[C@H](CCCN)NC(=O)[C@H](Cc3ccc(OCC(=O)O)cc3)NC(=O)[C@H](Cc3ccc(-c4ccccc4)cc3)NC(=O)[C@H](Cc3ccc(O)cc3)NC2=O)c1` [Compound 2858] ({CH2CO}-[Dap]Y(Carboxymethyl)D[Phe(3-Me)]Y[Bip]Y(Carboxymethyl)[Orn][dL][Dab][Cha]V[Orn]C[Dab][Aun]-OH; thioether N-14), 7.92; in that of `Cc1cccc(C[C@@H]2NC(=O)[C@H](CC(=O)O)NC(=O)[C@H](Cc3ccc(OCC(=O)O)cc3)NC(=O)[C@H](CN)NC(=O)CSC[C@@H](C(=O)N[C@@H](CCN)C(=O)NCCOCCOCC(=O)NCCCCCCCCCCC(=O)O)NC(=O)[C@H](CCCN)NC(=O)[C@H](C(C)C)NC(=O)[C@H](CC3CCCCC3)NC(=O)[C@H](CCN)NC(=O)[C@@H](CC(C)C)NC(=O)[C@H](CCCN)NC(=O)[C@H](Cc3ccc(OCC(=O)O)cc3)NC(=O)[C@H](Cc3ccc(-c4ccccc4)cc3)NC(=O)[C@H](Cc3ccc(O)cc3)NC2=O)c1` [Compound 2859] ({CH2CO}-[Dap]Y(Carboxymethyl)D[Phe(3-Me)]Y[Bip]Y(Carboxymethyl)[Orn][dL][Dab][Cha]V[Orn]C[Dab][AEEA][Aun]-OH; thioether N-14), 8.11. In the case of `Cc1cccc(C[C@@H]2NC(=O)[C@H](CC(=O)O)NC(=O)[C@H](Cc3ccc(OCC(=O)O)cc3)NC(=O)[C@H](CN)NC(=O)CSC[C@@H](C(=O)N[C@@H](CCN)C(=O)NCCOCCOCC(=O)NCCCCCCCCCCC(=O)O)NC(=O)[C@H](CCCN)NC(=O)[C@H](C(C)C)NC(=O)[C@H](CC3CCCCC3)NC(=O)[C@H](CCN)NC(=O)[C@@H](CC(C)C)NC(=O)[C@H](CCCN)NC(=O)[C@H](Cc3ccc(OCC(=O)O)cc3)NC(=O)[C@H](Cc3ccc(-c4ccccc4)cc3)NC(=O)[C@H](Cc3ccc(OCC(=O)O)cc3)NC2=O)c1` [Compound 2860] ({CH2CO}-[Dap]Y(Carboxymethyl)D[Phe(3-Me)]Y(Carboxymethyl)[Bip]Y(Carboxymethyl)[Orn][dL][Dab][Cha]V[Orn]C[Dab][AEEA][Aun]-OH; thioether N-14), the pIC50 was 7.95. For `Cc1cccc(C[C@@H]2NC(=O)[C@H](CC(=O)O)NC(=O)[C@H](Cc3ccc(OCC(=O)O)cc3)NC(=O)[C@H](Cc3ccncc3)NC(=O)CSC[C@@H](C(=O)N[C@@H](CCN)C(=O)NCCOCCOCC(=O)NCCCCCCCCCCC(=O)O)NC(=O)[C@H](CO)NC(=O)[C@H](C(C)(C)O)NC(=O)[C@H](CC3CCCCC3)NC(=O)[C@H](CCN)NC(=O)[C@@H](CC(C)C)NC(=O)[C@H](CCCN)NC(=O)[C@H](Cc3ccc(C(=O)O)cc3)NC(=O)[C@H](Cc3ccc(-c4ccccc4)cc3)NC(=O)[C@H](Cc3ccc(C(=O)O)cc3)NC2=O)c1` [Compound 2862] ({CH2CO}-[4Pal]Y(Carboxymethyl)D[Phe(3-Me)][Phe(4-COOH)][Bip][Phe(4-COOH)][Orn][dL][Dab][Cha][Val(3-OH)]SC[Dab][AEEA][Aun]-OH; thioether N-14), the pIC50 is 6.64.

Regarding `Cc1cccc(C[C@@H]2NC(=O)[C@H](CC(=O)O)NC(=O)[C@H](Cc3ccc(OCC(=O)O)cc3)NC(=O)[C@H](CCCNC(=N)N)NC(=O)CSC[C@@H](C(=O)N[C@@H](CCN)C(=O)NCCCCCCCCCCC(=O)O)NC(=O)[C@H](CCC(=O)O)NC(=O)[C@H](C(C)(C)O)NC(=O)[C@H](CC3CCCCC3)NC(=O)[C@H](CCN)NC(=O)[C@@H](CC(C)C)NC(=O)[C@H](CCCN)NC(=O)[C@H](Cc3ccc(OCC(=O)O)cc3)NC(=O)[C@H](Cc3ccc(-c4ccccc4)cc3)NC(=O)[C@H](Cc3ccc(OCC(=O)O)cc3)NC2=O)c1` [Compound 2863] ({CH2CO}-RY(Carboxymethyl)D[Phe(3-Me)]Y(Carboxymethyl)[Bip]Y(Carboxymethyl)[Orn][dL][Dab][Cha][Val(3-OH)]EC[Dab][Aun]-OH; thioether N-14), the pIC50 was 8.06.

With `Cc1cccc(C[C@@H]2NC(=O)[C@H](CC(=O)O)NC(=O)[C@H](Cc3ccc(OCC(=O)O)cc3)NC(=O)[C@H](CCCNC(=N)N)NC(=O)CSC[C@@H](C(=O)N[C@@H](CCN)C(=O)NCCCCCCCCCCC(=O)O)NC(=O)[C@H](CC(=O)O)NC(=O)[C@H](C(C)(C)O)NC(=O)[C@H](CC3CCCCC3)NC(=O)[C@H](CCN)NC(=O)[C@@H](CC(C)C)NC(=O)[C@H](CCCN)NC(=O)[C@H](Cc3ccc(OCC(=O)O)cc3)NC(=O)[C@H](Cc3ccc(-c4ccccc4)cc3)NC(=O)[C@H](Cc3ccc(OCC(=O)O)cc3)NC2=O)c1` [Compound 2864] ({CH2CO}-RY(Carboxymethyl)D[Phe(3-Me)]Y(Carboxymethyl)[Bip]Y(Carboxymethyl)[Orn][dL][Dab][Cha][Val(3-OH)]DC[Dab][Aun]-OH; thioether N-14), the pIC50 was 8.48.

The term pIC50 denotes the negative decadic logarithm of the IC50, by convention in mol/L.
